We go through four compounds from article PMC7498324, “Structure and mechanism of CutA, RNA nucleotidyl transferase with an unusual preference for cytosine” (Nucleic Acids Research, 2020).

The subject of the assay is T1, CutA (TtCutA).
T1 construct: TtCutA^240-603
As to the kind of experiment: fluorescence anisotropy competition with ATP-Cy5. In kind it is binding, Thermothielavioides terrestris. A general note: Fluorescence polarisation rises when a labelled molecule tumbles more slowly, as on binding a larger partner.
For the compound `Nc1ncnc2c1ncn2[C@@H]1O[C@H](COP(=O)(O)OP(=O)(O)OP(=O)(O)O)[C@@H](O)[C@H]1O` [ATP], the IC50 – broadly, the midpoint of a concentration-inhibition curve – worked out at 562 ± 21 nM. As for `Nc1ccn([C@@H]2O[C@H](COP(=O)(O)OP(=O)(O)OP(=O)(O)O)[C@@H](O)[C@H]2O)c(=O)n1` [CTP], the figure is 467 ± 16 nM. As for `Nc1nc2c(ncn2[C@@H]2O[C@H](COP(=O)(O)OP(=O)(O)OP(=O)(O)O)[C@@H](O)[C@H]2O)c(=O)[nH]1` [GTP], the figure is 1050 ± 56 nM. As for `O=c1ccn([C@@H]2O[C@H](CO[P@@](=O)(O)O[P@@](=O)(O)OP(=O)(O)O)[C@@H](O)[C@H]2O)c(=O)[nH]1` [UTP], the figure is 537 ± 23 nM.
